Test results taken from US9211261B2, “Immediate release dosage forms containing solid drug dispersions” (Bend Research, Inc., priority 2002, dated 2015).

Assay: In vitro dissolution test of Drug 1 from tablets (simulated intestinal buffer pH 6.8 with 0.5 wt % sodium lauryl sulfate)
Format: physicochemical
Details: 120 mgA tablet of Example 2, 900 mL pH 6.8 buffer + 0.5 wt % SLS, 37° C., 100 rpm, average of two tests
Protocol: An in vitro test may be used to determine whether a dosage form provides a release profile within the scope of the present invention. In vitro tests are well known in the art. One example is a so-called “direct” test, where the dosage form is placed into a stirred USP type 2 dissoette flask containing 900 mL of a dissolution medium maintained at 37° C., such as a buffer solution simulating a gastric environment (10 mM HCl, 100 mM NaCl, pH 2.0, 261 mOsm/kg) or the PBS or MFD solutions previously described. One skilled in the art will understand that in such tests the dissolution medium should act as a sink for the drug in the dosage form. By “sink” is meant that the composition and volume of the dissolution medium is sufficient such that substantially all of the drug in the dosage form will dissolve into the dissolution medium within about 4 hours or less. In some cases a surfactant, such as sodium lauryl sulfate or other excipients may be added to the dissolution medium to ensure the dissolution medium acts as a sink for the drug. The dosage form is placed in a wire support to keep the dosage form off of the bottom of the flask, so that all of its surfaces are exposed to the dissolution medium, and the medium is stirred using paddles that rotate at a rate of 50 rpm. Samples of the dissolution medium are taken at periodic intervals using a VanKel VK8000 autosampling dissoette with automatic receptor solution replacement. The concentration of dissolved drug in the dissolution medium is then determined by High Performance Liquid Chromatography (HPLC), by comparing UV absorbance of samples to the absorbance of drug standards. The mass of dissolved drug in the dissolution medium is then calculated from the concentration of drug in the medium and the volume of the medium, which value is used to calculate the actual amount of drug released from the dosage form, taking into consideration the mass of drug originally present in the dosage form.
Drug 1 dissolution from the tablets of Example 2 was measured using an in vitro test. First, a dissolution medium consisting of a simulated intestinal buffer solution was made by dissolving 6.8 g of KH2PO4 in 750 mL of deionized water with 85 mL 0.2M NaOH. Water was added for a final volume of 1 L. The pH was adjusted to 6.8±0.1 using 0.2M NaOH. Next, 0.5 wt % sodium lauryl sulfate was added to the buffer. A 900 mL sample of this solution was added to each of two vessels in a VanKel dissolution testing apparatus with automatic sampling. The solution temperature was maintained at 37° C., and stirred with a paddle speed of 100 rpm. This dissolution medium acted as a sink for the 120 mgA tablets. After equilibration to 37° C., a tablet of Example 2 was added to each vessel containing the buffer solution, resulting in a Drug 1 concentration of 130 μgA/mL, assuming all of the drug had dissolved. Samples were collected at 5, 15, 20, 35, 45, 60, 75, 90, 120 and 180 minutes, and then analyzed by HPLC using a Waters Symmetry C8 column. The mobile phase consisted of 0.2 vol % H3PO4 (in water)/methanol in the ratio of 15/85 (vol/vol). Drug 1 concentration was calculated by comparing UV absorbance at 256 nm to the absorbance of Drug 1 standards.

With `CCOC(=O)N1c2ccc(C(F)(F)F)cc2C(N(Cc2cc(C(F)(F)F)cc(C(F)(F)F)c2)C(=O)OC)CC1CC` (stereo not shown) [Drug 1, 4-[(3,5-bis-trifluoromethyl-benzyl)-methoxycarbonyl-amino]-2-ethyl-6-trifluoromethyl-3,4-dihydro-2H-quinoline-1-carboxylic acid ethyl ester] the “Drug 1 Concentration” value (time 0 min) was 0 μgA/mL, the “Drug 1 Released” value (time 0 min) was 0 wt % and the “Drug 1 Concentration” value (time 5 min) was 49 μgA/mL. For the same compound, the “Drug 1 Released” value (time 5 min) was 37 wt %, the “Drug 1 Concentration” value (time 15 min) was 114 μgA/mL and the “Drug 1 Released” value (time 15 min) was 87 wt %. The “Drug 1 Concentration” value (time 20 min) was 123 μgA/mL, the “Drug 1 Released” value (time 20 min) was 94 wt % and the “Drug 1 Concentration” value (time 35 min) was 126 μgA/mL. The “Drug 1 Released” value (time 35 min) was 96 wt %, the “Drug 1 Concentration” value (time 45 min) was 126 μgA/mL and the “Drug 1 Released” value (time 45 min) was 96 wt %. For the same compound, the “Drug 1 Concentration” value (time 60 min) was 125 μgA/mL, the “Drug 1 Released” value (time 60 min) was 95 wt % and the “Drug 1 Concentration” value (time 75 min) was 128 μgA/mL. For the same compound, the “Drug 1 Released” value (time 75 min) was 98 wt %, the “Drug 1 Concentration” value (time 90 min) was 127 μgA/mL and the “Drug 1 Released” value (time 90 min) was 97 wt %. The “Drug 1 Concentration” value (time 120 min) was 127 μgA/mL, the “Drug 1 Released” value (time 120 min) was 97 wt % and the “Drug 1 Concentration” value (time 180 min) was 131 μgA/mL. The “Drug 1 Released” value (time 180 min) was 100 wt %.
